Values quoted from earlier work, collected in patent US20130195925A1, “ANTI AGING APPLICATION AND METHOD FOR TREATING AGING” (VASKIN, LLC, priority 2011, published 2013).

Experiments:
[1] = test system: co-culture model of melanocytes and keratinocytes; details: fluorochrome transfer, flow cytometry
[2] = thought to be; compared with vitamin E
stem cell factor = details: human keratinocyte cell culture
[3] = in vivo
[4] = in vivo; remark: listed apart in the source
[5] = test system: UVB-induced pigmented skins of brownish guinea pigs; details: 0.5% Glabridin solution applied topically; backs of brownish guinea pigs
wounds = details: solution containing 5%

**Q.** With COc1cc(CCC(=O)CC(=O)CCc2ccc(O)c(OC)c2)ccc1O [Tetrahydrocurcumin] as the compound, how does the “safety for topical use” value read?
**A.** Its value is “no irritant or sensitization side effects”.

**Q.** For NC(=O)c1cccnc1 [Niacinamide], which “downregulation of the amount of melanosomes transferred” value [1] is on record?
**A.** The value was 35%-68%.

**Q.** For O=C(O[C@@H]1Cc2c(O)cc(O)cc2O[C@@H]1c1cc(O)c(O)c(O)c1)c1cc(O)c(O)c(O)c1 [EGCG, Epigallocatechin galate], which “power for neutralizing free radicals relative to vitamin E” value [2] is on record?
**A.** Its value is 200 times.

**Q.** Which “gene expression and protein release of stem cell factor” value (stem cell factor) does the source give for C=CCCCCCCCCC(=O)N[C@@H](Cc1ccccc1)C(=O)O [Undecylenoyl phenylalanine] here?
**A.** The value was “suppresses”.

**Q.** With O=c1cc(CO)occ1O [kojic acid] as the compound, how does the carcinogenic properties [3] read?
**A.** The carcinogenic properties was “may have some carcinogenic properties”.

**Q.** And the dermatitis [4]?
**A.** Its dermatitis is “can lead to dermatitis in some people”.

**Q.** With CC1(C)C=Cc2c(ccc3c2OC[C@@H](c2ccc(O)cc2O)C3)O1 [Glabridin] as the compound, how does the “pigmentation induced by UVB radiation” value [5] read?
**A.** The value was “significantly reduced pigmentation”.

**Q.** With CC(=O)Oc1c(C)c(C)c2c(c1C)CCC(C)(CCC[C@H](C)CCC[C@H](C)CCCC(C)C)O2 (some centres unmarked) [Vitamin E acetate, Tocopheryl acetate] as the compound, how does the wound healing time (wounds) read?
**A.** Its wound healing time is “decreased the healing time required”.
